The supplement of paper PMC10307832

Assays:
Experiment in all cases: relative viability (nuclei count vs DMSO), 5 days (fraction); higher = more cells survive
[1] = compound: COc1cc2nccc(Oc3ccc(NC(=O)C4(C(=O)Nc5ccc(F)cc5)CC4)cc3)c2cc1OC [Cabozantinib] + Cc1nc(NC(=O)N2CCC[C@H]2C(N)=O)sc1-c1ccnc(C(C)(C)C(F)(F)F)c1 [Alpelisib] (partner 2 µM)
Summary of the method: (§1)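 For relative viability, nuclei counts in treated wells were divided by those in vehicle wells. Lung cancer cell lines had been pin-tool dosed in 1536-well plates the day after seeding and cultured for 5 days, then fixed and stained in one step (final 0.05% Triton X-100, 1% formaldehyde, 1 ug/ml Hoechst) and imaged at 4×. Doses were one drug alone or a fixed anchor-drug dose plus five library-drug doses (not always all listed) in √10 steps, and values are duplicate-plate medians.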

[2] = compound: O[C@@H](COc1cccc2ncccc12)CN1CCN([C@@H]2c3ccccc3[C@@H]3[C@H](c4ccccc42)C3(F)F)CC1 [Zosuquidar] + CC(C)C[C@H](NC(=O)[C@H](Cc1ccccc1)NC(=O)c1cnccn1)B(O)O [Bortezomib] (partner 0.002 µM)
Summary of the method: as §1

[3] = compound: C1=CC(=CC=C1NC(=S)NNC2=C(C=C(C=C2[N+](=O)[O-])C(F)(F)F)[N+](=O)[O-])F [Kobe2602] + CS(=O)(=O)N1CCN(Cc2cc3nc(-c4cccc5[nH]ncc45)nc(N4CCOCC4)c3s2)CC1 [Pictilisib] (partner 1 µM)
Summary of the method: as §1

[4] = compound: C1=CC(=CC=C1NC(=S)NNC2=C(C=C(C=C2[N+](=O)[O-])C(F)(F)F)[N+](=O)[O-])F [Kobe2602] + C[C@]1(O)C[C@@H](c2nc(-c3ccc4ccc(-c5ccccc5)nc4c3)c3c(N)nccn32)C1 [Linsitinib] (partner 1 µM)
Summary of the method: as §1

UMC-11
relative viability ([1]; first compound 0.02 µM): 0.848
relative viability ([1]; first compound 0.06325 µM): 1.1
relative viability ([1]; first compound 0.2 µM): 1.01
relative viability ([1]; first compound 0.6325 µM): 1.05
relative viability ([1]; first compound 2 µM): 1.02
relative viability ([2]; first compound 0.01 µM): 0.654
relative viability ([2]; first compound 0.03162 µM): 0.715
relative viability ([2]; first compound 0.1 µM): 0.676
relative viability ([2]; first compound 0.3162 µM): 1.06
relative viability ([2]; first compound 1 µM): 0.625
relative viability ([3]; first compound 0.2 µM): 0.865
relative viability ([3]; first compound 0.6325 µM): 0.863
relative viability ([3]; first compound 2 µM): 0.847
relative viability ([3]; first compound 6.325 µM): 0.778
relative viability ([3]; first compound 20 µM): 0.868
relative viability ([4]; first compound 0.2 µM): 1
relative viability ([4]; first compound 0.6325 µM): 1.06
relative viability ([4]; first compound 2 µM): 0.997
relative viability ([4]; first compound 6.325 µM): 0.996
relative viability ([4]; first compound 20 µM): 0.947
